# What was measured:
# green foxtail [1] = assay: Test Example 4: herbicidal effect by soil treatment (Table 19, symbol G); type: in vivo, green foxtail (Setaria viridis); conditions: amount of applied herbicide 320 g/ha
# Method in brief: (§1)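 Three weeks of greenhouse growth at 25° C. to 30° C. followed a uniform surface spray of water-diluted emulsion at a predetermined herbicide amount. Seeds had been sown beforehand under about 1.5 cm of sterilized diluvial soil. Grading followed criteria set out in an earlier test.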
# Italian ryegrass [2] = assay: Test Example 5: herbicidal effect by foliage application, plastic box (Table 20, symbol K); type: in vivo, Italian ryegrass (Lolium multiflorum); conditions: amount of applied herbicide 320 g/ha; foliage application after 14-day growth; evaluated three weeks after application
# Method in brief: (§2)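 Plants sown in sterilized diluvial soil and grown 14 days in a greenhouse at 25° C to 30° C, then sprayed on the foliage with the compound's emulsion diluted in water to a predetermined herbicide amount. Injury to weeds and crops scored three weeks after application on a visual rating scale.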
# rice flat sedge = assay: Test Example 3: herbicidal effect by foliage application, Wagner pot (Table 18, symbol E); type: in vivo, rice flat sedge (Cyperus iria); conditions: 320 g/ha
# Method in brief: (§3)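 Plants were sown in alluvial soil held under 0.1–0.5 cm standing water and grown 14 days in a greenhouse at 25–30 °C. An emulsifiable formulation, water-diluted to the set dose, was then sprayed onto the foliage, and effects were scored three weeks later using previously defined criteria.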
# redroot pigweed [3] = assay: Test Example 4: herbicidal effect by soil treatment (Table 19, symbol N); type: in vivo, redroot pigweed (Amaranthus retroflexus); conditions: amount of applied herbicide 320 g/ha
# Method in brief: as §1
# barnyard grass [4] = assay: Test Example 3: herbicidal effect by foliage application, Wagner pot (Table 18, symbol H); type: in vivo, barnyard grass (Echinochloa crus-galli); conditions: 320 g/ha
# Method in brief: as §3
# blackgrass [5] = assay: Test Example 5: herbicidal effect by foliage application, plastic box (Table 20, symbol J); type: in vivo, blackgrass (Alopecurus myosuroides); conditions: amount of applied herbicide 320 g/ha; foliage application after 14-day growth; evaluated three weeks after application
# Method in brief: as §2
# wild oat [6] = assay: Test Example 5: herbicidal effect by foliage application, plastic box (Table 20, symbol I); type: in vivo, wild oat (Avena fatua); conditions: amount of applied herbicide 320 g/ha; foliage application after 14-day growth; evaluated three weeks after application
# Method in brief: as §2
# Italian ryegrass [7] = assay: Test Example 4: herbicidal effect by soil treatment (Table 19, symbol K); type: in vivo, Italian ryegrass (Lolium multiflorum); conditions: amount of applied herbicide 320 g/ha
# Method in brief: as §1
# velvetleaf [8] = assay: Test Example 4: herbicidal effect by soil treatment (Table 19, symbol M); type: in vivo, velvetleaf (Abutilon theophrasti); conditions: amount of applied herbicide 320 g/ha
# Method in brief: as §1
# southern crabgrass [9] = assay: Test Example 5: herbicidal effect by foliage application, plastic box (Table 20, symbol F); type: in vivo, southern crabgrass (Digitaria ciliaris); conditions: amount of applied herbicide 320 g/ha; foliage application after 14-day growth; evaluated three weeks after application
# Method in brief: as §2
# persian speedwell [10] = assay: Test Example 4: herbicidal effect by soil treatment (Table 19, symbol R); type: in vivo, Persian speedwell (Veronica persica); conditions: amount of applied herbicide 320 g/ha
# Method in brief: as §1
# wild oat [11] = assay: Test Example 4: herbicidal effect by soil treatment (Table 19, symbol I); type: in vivo, wild oat (Avena fatua); conditions: amount of applied herbicide 320 g/ha
# Method in brief: as §1
# barnyard grass [12] = assay: Test Example 4: herbicidal effect by soil treatment (Table 19, symbol H); type: in vivo, barnyard grass (Echinochloa crus-galli); conditions: amount of applied herbicide 320 g/ha
# Method in brief: as §1
# windgrass [13] = assay: Test Example 5: herbicidal effect by foliage application, plastic box (Table 20, symbol L); type: in vivo, windgrass (Apera spica-venti); conditions: amount of applied herbicide 320 g/ha; foliage application after 14-day growth; evaluated three weeks after application
# Method in brief: as §2
# redroot pigweed [14] = assay: Test Example 5: herbicidal effect by foliage application, plastic box (Table 20, symbol N); type: in vivo, redroot pigweed (Amaranthus retroflexus); conditions: amount of applied herbicide 320 g/ha; foliage application after 14-day growth; evaluated three weeks after application
# Method in brief: as §2
# lambsquarters [15] = assay: Test Example 5: herbicidal effect by foliage application, plastic box (Table 20, symbol O); type: in vivo, lambsquarters (Chenopodium album); conditions: amount of applied herbicide 320 g/ha; foliage application after 14-day growth; evaluated three weeks after application
# Method in brief: as §2
# green foxtail [16] = assay: Test Example 5: herbicidal effect by foliage application, plastic box (Table 20, symbol G); type: in vivo, green foxtail (Setaria viridis); conditions: amount of applied herbicide 320 g/ha; foliage application after 14-day growth; evaluated three weeks after application
# Method in brief: as §2
# persian speedwell [17] = assay: Test Example 5: herbicidal effect by foliage application, plastic box (Table 20, symbol R); type: in vivo, Persian speedwell (Veronica persica); conditions: amount of applied herbicide 320 g/ha; foliage application after 14-day growth; evaluated three weeks after application
# Method in brief: as §2
# chickweed [18] = assay: Test Example 5: herbicidal effect by foliage application, plastic box (Table 20, symbol P); type: in vivo, common chickweed (Stellaria media); conditions: amount of applied herbicide 320 g/ha; foliage application after 14-day growth; evaluated three weeks after application
# Method in brief: as §2
# barnyard grass [19] = assay: Test Example 5: herbicidal effect by foliage application, plastic box (Table 20, symbol H); type: in vivo, barnyard grass (Echinochloa crus-galli); conditions: amount of applied herbicide 320 g/ha; foliage application after 14-day growth; evaluated three weeks after application
# Method in brief: as §2
# lambsquarters [20] = assay: Test Example 4: herbicidal effect by soil treatment (Table 19, symbol O); type: in vivo, lambsquarters (Chenopodium album); conditions: amount of applied herbicide 320 g/ha
# Method in brief: as §1
# southern crabgrass [21] = assay: Test Example 4: herbicidal effect by soil treatment (Table 19, symbol F); type: in vivo, southern crabgrass (Digitaria ciliaris); conditions: amount of applied herbicide 320 g/ha
# Method in brief: as §1
# windgrass [22] = assay: Test Example 4: herbicidal effect by soil treatment (Table 19, symbol L); type: in vivo, windgrass (Apera spica-venti); conditions: amount of applied herbicide 320 g/ha
# Method in brief: as §1
# blackgrass [23] = assay: Test Example 4: herbicidal effect by soil treatment (Table 19, symbol J); type: in vivo, blackgrass (Alopecurus myosuroides); conditions: amount of applied herbicide 320 g/ha
# Method in brief: as §1
# chickweed [24] = assay: Test Example 4: herbicidal effect by soil treatment (Table 19, symbol P); type: in vivo, common chickweed (Stellaria media); conditions: amount of applied herbicide 320 g/ha
# Method in brief: as §1
# Chinese sprangletop = assay: Test Example 3: herbicidal effect by foliage application, Wagner pot (Table 18, symbol D); type: in vivo, chinese sprangletop (Leptochloa chinensis); conditions: 320 g/ha
# Method in brief: as §3
# velvetleaf [25] = assay: Test Example 5: herbicidal effect by foliage application, plastic box (Table 20, symbol M); type: in vivo, velvetleaf (Abutilon theophrasti); conditions: amount of applied herbicide 320 g/ha; foliage application after 14-day growth; evaluated three weeks after application
# Method in brief: as §2
Compound,"Herbicidal effect by foliage application, K: Italian ryegrass (Italian ryegrass [2])",herbicidal effect on rice flat sedge (E) (rice flat sedge),herbicidal effect on barnyard grass (H) (barnyard grass [4]),"Herbicidal effect by foliage application, J: blackgrass (blackgrass [5])","Herbicidal effect by foliage application, I: wild oat (wild oat [6])","Herbicidal effect by foliage application, F: southern crabgrass (southern crabgrass [9])","Herbicidal effect by foliage application, L: windgrass (windgrass [13])","Herbicidal effect by foliage application, N: redroot pigweed (redroot pigweed [14])","Herbicidal effect by foliage application, O: lambsquarters (lambsquarters [15])","Herbicidal effect by foliage application, G: green foxtail (green foxtail [16])","Herbicidal effect by foliage application, R: persian speedwell (persian speedwell [17])","Herbicidal effect by foliage application, P: chickweed (chickweed [18])","Herbicidal effect by foliage application, H: barnyard grass (barnyard grass [19])",herbicidal effect on Chinese sprangletop (D) (Chinese sprangletop),"Herbicidal effect by foliage application, M: velvetleaf (velvetleaf [25])","G: green foxtail, herbicidal effect grade (green foxtail [1])","N: redroot pigweed, herbicidal effect grade (redroot pigweed [3])","K: Italian ryegrass, herbicidal effect grade (Italian ryegrass [7])","M: velvetleaf, herbicidal effect grade (velvetleaf [8])","R: persian speedwell, herbicidal effect grade (persian speedwell [10])",further results
COc1cccc(-c2sc3c(C)cccc3c2-c2c(O)c(C)nn(C)c2=O)c1 [4-108],5 (Herbicidal rate of 90% or more (almost completely withered)),5 (Herbicidal rate of 90% or more (almost completely withered)),4 (Herbicidal rate of 70% or more and less than 90%),4 (Herbicidal rate of 70% or more and less than 90%),0 (Herbicidal rate of 5% or less (almost no effect)),3 (Herbicidal rate of 40% or more and less than 70%),0 (Herbicidal rate of 5% or less (almost no effect)),4 (Herbicidal rate of 70% or more and less than 90%),4 (Herbicidal rate of 70% or more and less than 90%),3 (Herbicidal rate of 40% or more and less than 70%),5 (Herbicidal rate of 90% or more (almost completely withered)),5 (Herbicidal rate of 90% or more (almost completely withered)),2 (Herbicidal rate of 20% or more and less than 40%),0 (Herbicidal rate of 5% or less (almost no effect)),4 (Herbicidal rate of 70% or more and less than 90%),–,–,–,–,–,"Herbicidal effect by soil treatment, G: green foxtail (green foxtail [1]): 0 (Herbicidal rate of 5% or less (almost no effect)); Herbicidal effect by soil treatment, N: redroot pigweed (redroot pigweed [3]): 5 (Herbicidal rate of 90% or more (almost completely withered)); Herbicidal effect by soil treatment, K: Italian ryegrass (Italian ryegrass [7]): 1 (Herbicidal rate of 5% or more and less than 20%); Herbicidal effect by soil treatment, M: velvetleaf (velvetleaf [8]): 3 (Herbicidal rate of 40% or more and less than 70%); Herbicidal effect by soil treatment, R: persian speedwell (persian speedwell [10]): 3 (Herbicidal rate of 40% or more and less than 70%); Herbicidal effect by soil treatment, I: wild oat (wild oat [11]): 0 (Herbicidal rate of 5% or less (almost no effect)); Herbicidal effect by soil treatment, H: barnyard grass (barnyard grass [12]): 0 (Herbicidal rate of 5% or less (almost no effect)); Herbicidal effect by soil treatment, O: lambsquarters (lambsquarters [20]): 4 (Herbicidal rate of 70% or more and less than 90%); Herbicidal effect by soil treatment, F: southern crabgrass (southern crabgrass [21]): 2 (Herbicidal rate of 20% or more and less than 40%); Herbicidal effect by soil treatment, L: windgrass (windgrass [22]): 0 (Herbicidal rate of 5% or less (almost no effect)); Herbicidal effect by soil treatment, J: blackgrass (blackgrass [23]): 2 (Herbicidal rate of 20% or more and less than 40%); Herbicidal effect by soil treatment, P: chickweed (chickweed [24]): 1 (Herbicidal rate of 5% or more and less than 20%)"
COc1ccc(-c2sc3cc(F)c(F)cc3c2-c2c(O)c(C)nn(C)c2=O)cc1OC [5-033],4 (Herbicidal rate of 70% or more and less than 90%),4 (Herbicidal rate of 70% or more and less than 90%),4 (Herbicidal rate of 70% or more and less than 90%),0 (Herbicidal rate of 5% or less (almost no effect)),0 (Herbicidal rate of 5% or less (almost no effect)),1 (Herbicidal rate of 5% or more and less than 20%),0 (Herbicidal rate of 5% or less (almost no effect)),3 (Herbicidal rate of 40% or more and less than 70%),4 (Herbicidal rate of 70% or more and less than 90%),4 (Herbicidal rate of 70% or more and less than 90%),5 (Herbicidal rate of 90% or more (almost completely withered)),5 (Herbicidal rate of 90% or more (almost completely withered)),3 (Herbicidal rate of 40% or more and less than 70%),3 (Herbicidal rate of 40% or more and less than 70%),4 (Herbicidal rate of 70% or more and less than 90%),3 (Herbicidal rate of 40% or more and less than 70%),3 (Herbicidal rate of 40% or more and less than 70%),0 (Herbicidal rate of 5% or less (almost no effect)),0 (Herbicidal rate of 5% or less (almost no effect)),0 (Herbicidal rate of 5% or less (almost no effect)),"I: wild oat, herbicidal effect grade (wild oat [11]): 0 (Herbicidal rate of 5% or less (almost no effect)); H: barnyard grass, herbicidal effect grade (barnyard grass [12]): 3 (Herbicidal rate of 40% or more and less than 70%); O: lambsquarters, herbicidal effect grade (lambsquarters [20]): 4 (Herbicidal rate of 70% or more and less than 90%); F: southern crabgrass, herbicidal effect grade (southern crabgrass [21]): 3 (Herbicidal rate of 40% or more and less than 70%); L: windgrass, herbicidal effect grade (windgrass [22]): 0 (Herbicidal rate of 5% or less (almost no effect)); J: blackgrass, herbicidal effect grade (blackgrass [23]): 0 (Herbicidal rate of 5% or less (almost no effect)); P: chickweed, herbicidal effect grade (chickweed [24]): 1 (Herbicidal rate of 5% or more and less than 20%)"
CCCC(=O)Oc1c(C)nn(C)c(=O)c1-c1c(-c2ccc(F)cc2)sc2cc(Cl)c(Cl)cc12 [5-040],0 (Herbicidal rate of 5% or less (almost no effect)),0 (Herbicidal rate of 5% or less (almost no effect)),4 (Herbicidal rate of 70% or more and less than 90%),0 (Herbicidal rate of 5% or less (almost no effect)),3 (Herbicidal rate of 40% or more and less than 70%),0 (Herbicidal rate of 5% or less (almost no effect)),3 (Herbicidal rate of 40% or more and less than 70%),3 (Herbicidal rate of 40% or more and less than 70%),3 (Herbicidal rate of 40% or more and less than 70%),1 (Herbicidal rate of 5% or more and less than 20%),4 (Herbicidal rate of 70% or more and less than 90%),5 (Herbicidal rate of 90% or more (almost completely withered)),2 (Herbicidal rate of 20% or more and less than 40%),1 (Herbicidal rate of 5% or more and less than 20%),1 (Herbicidal rate of 5% or more and less than 20%),3 (Herbicidal rate of 40% or more and less than 70%),4 (Herbicidal rate of 70% or more and less than 90%),0 (Herbicidal rate of 5% or less (almost no effect)),2 (Herbicidal rate of 20% or more and less than 40%),0 (Herbicidal rate of 5% or less (almost no effect)),"I: wild oat, herbicidal effect grade (wild oat [11]): 0 (Herbicidal rate of 5% or less (almost no effect)); H: barnyard grass, herbicidal effect grade (barnyard grass [12]): 0 (Herbicidal rate of 5% or less (almost no effect)); O: lambsquarters, herbicidal effect grade (lambsquarters [20]): 0 (Herbicidal rate of 5% or less (almost no effect)); F: southern crabgrass, herbicidal effect grade (southern crabgrass [21]): 0 (Herbicidal rate of 5% or less (almost no effect)); L: windgrass, herbicidal effect grade (windgrass [22]): 0 (Herbicidal rate of 5% or less (almost no effect)); J: blackgrass, herbicidal effect grade (blackgrass [23]): 0 (Herbicidal rate of 5% or less (almost no effect)); P: chickweed, herbicidal effect grade (chickweed [24]): 0 (Herbicidal rate of 5% or less (almost no effect))"
